Test results published in ChEMBL document CHEMBL1136059 (Bioorg Med Chem Lett, 2002).

What was measured:
[1] = target: T1, Prostaglandin G/H synthase 2 (Homo sapiens, UniProt P35354); format: functional
T1 sequence (P35354 whole entry): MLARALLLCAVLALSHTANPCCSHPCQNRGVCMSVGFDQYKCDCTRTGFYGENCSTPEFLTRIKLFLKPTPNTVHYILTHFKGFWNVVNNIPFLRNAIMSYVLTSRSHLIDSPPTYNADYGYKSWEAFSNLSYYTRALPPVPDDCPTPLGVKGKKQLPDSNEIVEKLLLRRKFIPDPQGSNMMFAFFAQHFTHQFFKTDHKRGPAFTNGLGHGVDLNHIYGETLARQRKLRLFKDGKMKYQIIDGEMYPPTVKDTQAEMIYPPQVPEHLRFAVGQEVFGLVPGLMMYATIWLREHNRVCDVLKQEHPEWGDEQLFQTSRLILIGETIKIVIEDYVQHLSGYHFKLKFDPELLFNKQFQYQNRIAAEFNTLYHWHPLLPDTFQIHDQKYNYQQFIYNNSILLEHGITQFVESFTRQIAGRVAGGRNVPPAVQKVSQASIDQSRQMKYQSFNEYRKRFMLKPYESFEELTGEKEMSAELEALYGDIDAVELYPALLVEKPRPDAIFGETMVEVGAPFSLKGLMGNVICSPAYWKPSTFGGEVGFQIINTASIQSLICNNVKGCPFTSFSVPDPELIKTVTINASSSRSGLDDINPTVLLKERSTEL

[2] = target: T2, Prostaglandin G/H synthase 1 (Homo sapiens, UniProt P23219); test: In vitro inhibition of cyclooxygenase-1 via inhibition of TXB2 generation in the presence of 1 uM arachidonic acid in human platelets; format: functional
T2 sequence (P23219 whole entry): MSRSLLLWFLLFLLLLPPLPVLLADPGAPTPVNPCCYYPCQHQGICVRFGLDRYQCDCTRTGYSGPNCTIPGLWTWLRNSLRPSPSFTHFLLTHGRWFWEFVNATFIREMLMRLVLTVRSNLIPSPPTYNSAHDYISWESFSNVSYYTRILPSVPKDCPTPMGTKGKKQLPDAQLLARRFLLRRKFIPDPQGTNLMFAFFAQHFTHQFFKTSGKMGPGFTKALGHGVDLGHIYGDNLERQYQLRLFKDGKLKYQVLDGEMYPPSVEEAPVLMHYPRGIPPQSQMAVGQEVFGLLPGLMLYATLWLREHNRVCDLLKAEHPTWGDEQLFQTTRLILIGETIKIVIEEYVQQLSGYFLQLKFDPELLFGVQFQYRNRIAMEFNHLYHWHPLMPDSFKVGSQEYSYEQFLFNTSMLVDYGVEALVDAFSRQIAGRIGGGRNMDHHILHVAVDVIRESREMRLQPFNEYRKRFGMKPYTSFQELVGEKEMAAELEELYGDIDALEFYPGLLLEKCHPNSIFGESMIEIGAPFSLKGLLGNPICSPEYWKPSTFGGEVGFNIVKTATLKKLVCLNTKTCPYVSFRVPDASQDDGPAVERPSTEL

[3] = target: T2, Prostaglandin G/H synthase 1; test: In vitro inhibition of cyclooxygenase-1 via inhibition of TXB2 generation in the presence of 1 uM arachidonic acid in human platelets at concentration of 10 uM; format: functional
[4] = target: T3, Prostaglandin G/H synthase 2 (Homo sapiens) (UniProt P35354); test: In vitro inhibition of cyclooxygenase-2 via inhibition of PGE-2 generation by LPS-stimulated monocytes isolated from human blood at a concentration of 20 uM; format: functional
T3 sequence (whole entry): T1 sequence (P35354 whole entry)

[5] = target: T2, Prostaglandin G/H synthase 1; test: In vitro inhibition of cyclooxygenase-1 via inhibition of TXB2 generation in the presence of 1 uM arachidonic acid in human platelets
[6] = target: T2, Prostaglandin G/H synthase 1; test: Tested in vitro for inhibition of cyclooxygenase-1 in human blood assay; format: functional
[7] = target: T1, Prostaglandin G/H synthase 2; test: Tested in vitro for inhibition of cyclooxygenase-2 in human blood assay; format: functional
[8] = target: T2, Prostaglandin G/H synthase 1; format: functional
[9] = target: T2, Prostaglandin G/H synthase 1; test: In vitro inhibition of cyclooxygenase-1 via inhibition of TXB2 generation in the presence of 1 uM arachidonic acid in human platelet; format: functional
[10] = target: T1, Prostaglandin G/H synthase 2; test: In vitro inhibition of cyclooxygenase-2 via inhibition of PGE-2 generation by LPS-stimulated monocytes isolated from human blood; inactive; format: functional
[11] = target: T3, Prostaglandin G/H synthase 2 (Homo sapiens); test: In vitro inhibition of cyclooxygenase-2 via inhibition of PGE-2 generation by LPS-stimulated monocytes isolated from human blood; format: functional
[12] = target: T3, Prostaglandin G/H synthase 2 (Homo sapiens); test: In vitro inhibition of cyclooxygenase-2 via inhibition of PGE-2 generation by LPS-stimulated monocytes isolated from human blood at concentration of 20 uM; format: functional

| Structure (SMILES) | IC50 [1] | inhibition [3] | also measured |
| --- | --- | --- | --- |
| CCc1cc(C(=O)c2ccccc2)ccc1/C=C/S(N)(=O)=O | 5.6 µM |  | IC50 [5]: 6.3 µM |
| CCOC(=O)/C=C/c1cc(CC)cc(C(=O)c2ccccc2)c1 | 5 µM |  |  |
| CCc1cc(/C=C/C(N)=O)cc(C(=O)c2ccccc2)c1 | 1.8 µM |  | IC50 [9]: 0.074 µM |
| CS(=O)(=O)/C=C/c1cccc(C(=O)c2ccccc2)c1 |  |  | IC50 [10]: Not Active |
| NS(=O)(=O)/C=C/c1ccccc1C(=O)c1ccccc1 |  | 39% | inhibition [12]: 43% |
| CS(=O)(=O)/C=C/c1ccc(C(=O)c2ccccc2)cc1 |  | 14% | inhibition [12]: 6% |
| NS(=O)(=O)/C=C/c1ccc(C(=O)c2ccccc2)cc1CO | 8.4 µM | 25% |  |
| CN(C)C(=O)c1cc(/C=C/S(N)(=O)=O)cc(C(=O)c2ccccc2)c1 |  |  | inhibition [4]: 31% |
| CS(=O)(=O)c1ccc(C2=C(c3ccccc3)C(=O)OC2)cc1 |  | 0% |  |
| NS(=O)(=O)/C=C/c1cc(CO)cc(C(=O)c2ccccc2)c1 |  |  | IC50 [8]: 5.4 µM |
| CCc1cc(/C=C/C(=O)O)cc(C(=O)c2ccccc2)c1 | 2.6 µM |  |  |

Further lines, with some results ahead:

| IC50 [1] | inhibition [3] | Structure (SMILES) | also measured |
| --- | --- | --- | --- |
| 19 µM |  | Cc1ccc(/C=C/S(N)(=O)=O)cc1C(=O)c1ccccc1 | inhibition [2]: 49% |
|  | 0% | NS(=O)(=O)/C=C/c1cccc(C(=O)c2ccccc2)c1 | inhibition [4]: 37% |
| 0.2 µM |  | CCc1cc(/C=C/S(N)(=O)=O)cc(C(=O)c2ccccc2)c1 | IC50 [6]: 100 µM; IC50 [7]: 12 µM; IC50 [8]: 18 µM |
|  | 0% | Cc1cc(/C=C/S(N)(=O)=O)ccc1C(=O)c1ccccc1 | inhibition [11]: 41% |
| 0.77 µM |  | CCc1ccc(/C=C/S(N)(=O)=O)cc1C(=O)c1ccccc1 | IC50 [8]: 0.2 µM |
| 9.7 µM |  | CC(C(=O)O)c1cc(/C=C/S(C)(=O)=O)cc(C(=O)c2ccccc2)c1 (stereo not given) |  |
| 5.6 µM |  | N#Cc1cc(/C=C/S(N)(=O)=O)cc(C(=O)c2ccccc2)c1 | IC50 [8]: 1.7 µM |
| 7.1 µM |  | CCN(CC)Cc1cc(/C=C/S(N)(=O)=O)cc(C(=O)c2ccccc2)c1 |  |
|  | 0% | Cc1cc(C(=O)c2ccccc2)ccc1/C=C/S(N)(=O)=O | inhibition [12]: 14% |
|  | 16% | CCc1cc(/C=C/S(C)(=O)=O)cc(C(=O)c2ccccc2)c1 | inhibition [4]: 40% |
| 20 µM |  | CC(=O)c1cc(/C=C/S(N)(=O)=O)cc(C(=O)c2ccccc2)c1 | IC50 [8]: 6.4 µM |
| 0.98 µM |  | CC(C)=Cc1cc(/C=C/S(N)(=O)=O)cc(C(=O)c2ccccc2)c1 | IC50 [8]: 3.6 µM |
